The values below come from BindingDB's records for patent US11299488 (Bristol-Myers Squibb Company, 2022).

Each structure is given as a SMILES string. pIC50: −log10 of the molar value.

As a reminder, the pIC50 is −log10 of the IC50, conventionally taken in molar units. A higher pIC50 goes with a low IC50.

Rho-associated protein kinase 2, sequence (O75116 whole entry): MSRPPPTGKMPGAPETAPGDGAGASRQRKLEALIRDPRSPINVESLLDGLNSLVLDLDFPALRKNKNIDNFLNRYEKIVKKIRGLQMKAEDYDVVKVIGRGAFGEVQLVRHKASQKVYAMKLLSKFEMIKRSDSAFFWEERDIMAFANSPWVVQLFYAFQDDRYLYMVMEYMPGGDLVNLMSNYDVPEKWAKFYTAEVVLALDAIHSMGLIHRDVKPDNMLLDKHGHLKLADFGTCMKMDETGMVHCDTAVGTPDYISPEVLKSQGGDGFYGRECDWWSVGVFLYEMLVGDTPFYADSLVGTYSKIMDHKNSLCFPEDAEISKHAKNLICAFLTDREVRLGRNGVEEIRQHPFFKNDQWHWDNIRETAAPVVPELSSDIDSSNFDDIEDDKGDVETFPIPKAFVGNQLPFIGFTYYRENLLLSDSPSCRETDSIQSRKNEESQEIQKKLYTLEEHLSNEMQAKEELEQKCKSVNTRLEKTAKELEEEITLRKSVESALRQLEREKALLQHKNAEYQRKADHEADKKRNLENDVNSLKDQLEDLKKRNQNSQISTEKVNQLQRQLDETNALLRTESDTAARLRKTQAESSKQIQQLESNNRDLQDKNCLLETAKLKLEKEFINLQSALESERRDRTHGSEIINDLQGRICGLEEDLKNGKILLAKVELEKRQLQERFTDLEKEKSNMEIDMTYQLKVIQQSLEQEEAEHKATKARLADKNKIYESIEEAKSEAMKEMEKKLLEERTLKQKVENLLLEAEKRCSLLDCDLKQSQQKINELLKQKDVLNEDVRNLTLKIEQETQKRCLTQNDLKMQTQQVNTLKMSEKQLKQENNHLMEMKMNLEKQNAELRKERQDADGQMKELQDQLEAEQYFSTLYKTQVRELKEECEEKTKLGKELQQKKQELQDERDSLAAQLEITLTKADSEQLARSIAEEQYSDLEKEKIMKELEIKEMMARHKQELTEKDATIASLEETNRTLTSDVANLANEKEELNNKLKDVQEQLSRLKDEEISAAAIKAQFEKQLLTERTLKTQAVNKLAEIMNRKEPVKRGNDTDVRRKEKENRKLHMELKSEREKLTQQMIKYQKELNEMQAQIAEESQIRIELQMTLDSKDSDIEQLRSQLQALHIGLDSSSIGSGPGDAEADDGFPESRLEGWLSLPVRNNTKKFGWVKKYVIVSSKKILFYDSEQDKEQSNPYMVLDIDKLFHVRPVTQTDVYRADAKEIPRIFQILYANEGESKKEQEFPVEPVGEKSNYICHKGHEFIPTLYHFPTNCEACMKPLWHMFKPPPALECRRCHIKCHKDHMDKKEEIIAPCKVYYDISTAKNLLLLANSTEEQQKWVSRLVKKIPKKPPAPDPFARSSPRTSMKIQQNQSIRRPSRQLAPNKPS

This experiment has as its target Rho-associated protein kinase 2 (Homo sapiens, UniProt O75116). The experiment in a line: In Vitro Assay. How it is done: The effectiveness of compounds of the present invention as ROCK inhibitors can be determined in a 30 μL assay containing 20 mM HEPES, pH 7.5, 20 mM MgCl2, 0.015% Brij-35, 4 mM DTT, 5 μM ATP and 1.5 μM peptide substrate (FITC-AHA-AKRRRLSSLRA-OH) (SEQ ID No. 1). Compounds were dissolved in DMSO so that the final concentration of DMSO was <2%, and the reaction was initiated with Rho kinase variants. After incubation, the reaction was terminated by the addition of EDTA and the phosphorylated and non-phosphorylated peptides separated using a LABCHIP 3000 Reader (Caliper Life Sciences). […] Compounds were tested in dose-response format, and the inhibition of kinase activity was calculated at each concentration of compound. The inhibition data were fit using a curve-fitting program to determine the IC50; i.e., the concentration of compound required to inhibit 50% of kinase activity.
In turn, `NC(=O)c1cccnc1O[C@H]1CC2(C[C@H](Nc3nc(-c4ccccc4Cl)cs3)C2)C1` (some centres not stated) [US11299488, Example 10] showed a pIC50 of 5.77. Compound `NC(=O)c1cccnc1O[C@H]1CC2(C[C@H](Nc3nc(-c4ccc(Cl)cc4)cs3)C2)C1` (some centres not stated) [US11299488, Example 9] showed a pIC50 of 5.48. Consider `NC(=O)c1cccnc1O[C@H]1CC2(C[C@H](Nc3nccc(N4CCCC(F)(F)C4)n3)C2)C1` (some centres not stated) [US11299488, Example 36], for which the pIC50 was 6.76.

Compound `NC(=O)c1cccnc1O[C@H]1CC2(C[C@H](Nc3nc4c(F)cc(Cl)cc4s3)C2)C1` (some centres not stated) [US11299488, Example 7] had a pIC50 of 6.40. This pIC50 lies 0.36 log units lower than the previous one. Take `NC(=O)c1cccnc1O[C@H]1CC2(C[C@H](Nc3nc4c(Cl)cccc4s3)C2)C1` (some centres not stated) [US11299488, Example 4]: the pIC50 was 7.12. Compared with the last compound, the pIC50 is 0.72 log units higher. Next, `NC(=O)c1cccnc1O[C@H]1CC2(C[C@H](Nc3nc4c(Cl)cc(Cl)cc4s3)C2)C1` (some centres not stated) [US11299488, Example 5]: 6.98; `COc1cnc(N[C@H]2CC3(C2)C[C@H](Oc2ncccc2C(N)=O)C3)c2cc(Cl)ccc12` (some centres not stated) [US11299488, Example 27]: 7.82.
